Like-named read-outs stand apart in the source and are kept apart here.
Experiment: Pharmacokinetic activity in rats: IV bolus and oral gavage; plasma, brain and CSF levels by LC-MS/MS
Format: in vivo, Male Sprague-Dawley rats
Conditions: rat; for Tmax: PO administration of Compound 6, 10 mg/kg, read-out: median Tmax; for presence in brain samples: levels believed due to contamination of brain samples with blood
Description: Male Sprague-Dawley rats (n=3/group) were assigned to Groups 1 to 6. Group 1 was administered an intravenous bolus dose of 1 mg/kg a test compound in 30% polyethyleneglycol-200 (PEG-200): 10% DMSO in saline. Serial samples of blood were collected at 0.05, 0.15, 0.75, 1.5, 3, 6, 10 and 24 hours via an implanted jugular vein catheter. Groups 2-6 received oral gavage doses of a test compound, formulated in 100% PEG300 (10 mg/kg). Rats from groups 2-6 were sacrificed at 0.25, 2, 6, 10 or 24 hours post-dose and blood samples (1 mL via cardiac puncture) were collected into chilled tubes containing K2EDTA as the anticoagulant. CSF and brain tissue were also collected at these time points. Blood samples were immediately centrifuged at 3000 g for 5 minutes under refrigerated conditions (4° C.). Plasmas and CSF samples were mixed with an aqueous solution of ascorbic acid to reach a final concentration of 2%. Brain, plasma and CSF samples were stored at −80° C. until analysis. The test compound and by-product concentrations were determined by LC-MS/MS. The eluent from a reversed-phase gradient (water/acetonitrile both containing 0.1% v/v formic acid) on a 1290 UHPLC system (Agilent Technologies, Stockport, UK) was introduced by positive electrospray ionization into an API6500 mass spectrometer (AB Sciex, Warrington, UK) and analyzed by multiple reaction monitoring (MRM). The lower limit of quantification (LLOQ) was in the range 1-10 ng/mL for the test compound and by-products. The mean plasma concentration-time data for each group were used to calculate pharmacokinetic parameters of the test compound and by-products with the software program Phoenix WinNonlin version 6.4 (Certara L. P., Princeton, N.J.).

[1] = male, Sprague-Dawley, plasma, PO administration of Compound 6, 10 mg/kg in 100% PEG300, mean, read-out: plasma Cmax
[2] = male, Sprague-Dawley, IV bolus 1 mg/kg, plasma

In the case of `Cc1c(-c2ccc(S(C)(=O)=O)cc2)nn(CC(=O)O)c1O` [2-[5-hydroxy-3-(4-methanesulfonylphenyl)-4-methyl-1H-pyrazol-1-yl]acetic acid], the “levels in plasma, brain and CSF (compared with Compound 6a)” value (after dosing Compound 6) is reported as “much lower levels”.

For `CCOC(=O)CN1N=C(c2ccc(S(C)(=O)=O)cc2)C(C)(NO)C1=O` (stereo not shown) [Compound 6, Ethyl 2-[4-(hydroxyamino)-3-(4-methanesulfonylphenyl)-4-methyl-5-oxo-4,5-dihydro-1H-pyrazol-1-yl]acetate], the Kp (male, Sprague-Dawley, CSF, PO 10 mg/kg, 0.25-2 h, read-out: mean CSF:plasma ratio) was 4, the Cmax (male, Sprague-Dawley, CSF, PO Compound 6 10 mg/kg, at 0.25 h, read-out: Cmax in CSF) was 26 ± 18 ng/mL and the Kp at 0.25 h (male, Sprague-Dawley, brain, PO 10 mg/kg, 0.25 h, read-out: mean brain:plasma ratio) was 1.1. It also gave a Cmax (male, Sprague-Dawley, brain, PO Compound 6 10 mg/kg, at 0.25 h, read-out: Cmax in brain) of 8 ± 2 ng/g, a clearance (male, Sprague-Dawley, plasma, IV bolus 1 mg/kg in 30% PEG-200:10% DMSO in saline) of 41 ± 2 mL/min/kg and a Vd (male, Sprague-Dawley, plasma, IV bolus 1 mg/kg, read-out: volume of distribution) of 1.1 ± 0.1 L/kg. The Cmax [1] was 8 ng/mL, the C0 [2] was 110 ± 10 ng/mL and the half-life [2] was 24 ± 0.6 min. For the same molecule, the Tmax (male, Sprague-Dawley, plasma) was 15 min, the “absorption after oral dosing” value (PO 10 mg/kg) was “very well absorbed” and the metabolism (after oral dosing) was “rapidly metabolized at the ester function”. For the same molecule, the “presence in brain samples” value was “Traces”.

Work on `CC1(NO)C(=O)N(CC(=O)O)N=C1c1ccc(S(C)(=O)=O)cc1` (stereo not shown) [Compound 6a, 2-[4-(hydroxyamino)-3-(4-methanesulfonylphenyl)-4-methyl-5-oxo-4,5-dihydro-1H-pyrazol-1-yl]acetic acid] yielded a Cmax (male, Sprague-Dawley, CSF, PO Compound 6 10 mg/kg, at 2 h, read-out: Cmax in CSF) of 107 ± 33 ng/mL, a Cmax (male, Sprague-Dawley, brain, PO Compound 6 10 mg/kg, at 2 h, read-out: Cmax in brain) of 85 ± 22 ng/g and a Cmax [1] of 5220 ng/mL. For the same molecule, the Tmax (male, Sprague-Dawley, plasma) was 15 min, the amount in brain (PO Compound 6 10 mg/kg) was “low” and the “plasma concentration relative to parent compound (Compound 6)” value (PO Compound 6 10 mg/kg, at Cmax (0.25 h)) was 700 fold. For the same molecule, the “plasma concentration relative to parent compound (Compound 6)” value (PO Compound 6 10 mg/kg, by 2 h) was 2000 fold, the “share among drug-related components observed in the samples” value (after dosing Compound 6) was “major drug-related component” and the distribution (after oral dosing of Compound 6) was “restricted to the periphery”. For the same molecule, the “presence in brain samples” value was “Traces”.

In the case of `CCOC(=O)Cn1nc(-c2ccc(S(C)(=O)=O)cc2)c(C)c1O` [ethyl 2-[5-hydroxy-3-(4-methanesulfonylphenyl)-4-methyl-1H-pyrazol-1-yl]acetate], the “levels in plasma, brain and CSF (compared with Compound 6a)” value (after dosing Compound 6) is reported as “much lower levels”.

Source: patent US10723704B2, “Pyrazolone derivatives as nitroxyl donors” (Cardioxyl Pharmaceuticals, Inc., priority 2015, dated 2020)
